Test results published in patent US20240008478A1, “Composition and Methods for Managing and Controlling Lepidopteran Insects” (priority 2022, published 2024).
Where a name gives a salt, the structure may show the parent alone.

How the values were obtained:
H. zea = details: hollow fiber formulation; 12-ha maize field; cited from earlier work
moths = test: Brazilian cotton field trial, compared with grower's standard methomyl cover spray (dead moth counts); assay type: in vivo, noctuid moths; details: methomyl alone sprayed over the entire crop, grower's standard rate; for 5 days after the application
Protocol: Initial work on products of the present disclosure consisted of a blend of oleoresins designed to mimic the attractive volatiles used by adult noctuids to identify sugar-rich sources of floral nectar. This blend also contains a number of sugar-based and proteic phagostimulants (feeding stimulants) to encourage the target insects to feed on the formulation to full engorgement. When a pesticide is added to this product, these components encourage megadose intake of the incorporated killing agent. This minimizes the risk of sub-lethal exposure, a contributing factor to the development of resistance. To further reduce the risk of resistance, the product may be designed as a tank mix to be blended with a small dose of the user's pesticide of choice just prior to application. This characteristic makes the product an extremely adaptable pest management solution and lends itself well to pesticide rotation programs. The product was originally tested in cotton and soybean fields in South America, where noctuid pests pose a significant economic threat to multiple crops. […]

Compound | rate of mating (H. zea) | dead moths recovered (moths)
CCCC/C=C\CCCCCCCCOC=O [(Z)-9-tetradecenyl formate] | cut in half | –
CNC(=O)ON=C(C)SC [methomyl] | – | no or very few dead moths
